According to patent publication US10239873B2, “7-azaindole or 4,7-diazaindole derivatives as IKKϵ epsilon and TBK1 inhibitor and pharmaceutical composition comprising same” (GREEN CROSS CORPORATION, priority 2015, dated 2019):

Tests used:
[1] = target: T1, TBK1 (Homo sapiens, UniProt Q9UHD2); assay: ADP-Glo Kinase Assay, inhibition activity on TBK1; format: biochemical
T1 construct: purchased Promega (Invitrogen is also named in the same bracket) V4158; PR8031B; V3991 (not assigned to the two kinases)
T1 sequence (Q9UHD2 1-729): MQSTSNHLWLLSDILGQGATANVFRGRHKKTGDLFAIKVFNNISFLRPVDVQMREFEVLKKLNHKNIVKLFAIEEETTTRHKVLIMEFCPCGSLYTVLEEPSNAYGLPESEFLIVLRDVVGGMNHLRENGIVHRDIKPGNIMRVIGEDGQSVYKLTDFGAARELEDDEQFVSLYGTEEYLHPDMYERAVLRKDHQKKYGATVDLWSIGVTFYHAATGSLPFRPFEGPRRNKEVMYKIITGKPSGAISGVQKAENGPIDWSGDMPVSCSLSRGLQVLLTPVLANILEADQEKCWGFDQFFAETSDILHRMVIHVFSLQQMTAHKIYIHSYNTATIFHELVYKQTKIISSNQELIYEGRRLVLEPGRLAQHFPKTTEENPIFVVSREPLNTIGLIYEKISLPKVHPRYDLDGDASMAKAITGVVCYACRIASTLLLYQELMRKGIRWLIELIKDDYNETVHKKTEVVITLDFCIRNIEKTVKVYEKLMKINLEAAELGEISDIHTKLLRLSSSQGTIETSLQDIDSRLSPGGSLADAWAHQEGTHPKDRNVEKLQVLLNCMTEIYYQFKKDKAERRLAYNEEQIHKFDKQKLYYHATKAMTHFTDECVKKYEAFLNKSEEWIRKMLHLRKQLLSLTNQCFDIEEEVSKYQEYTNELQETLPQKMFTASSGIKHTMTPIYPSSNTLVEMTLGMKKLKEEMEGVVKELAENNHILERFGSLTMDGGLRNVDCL
Outline: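 In 40 mM Tris pH 7.5 with 20 mM MgCl2 and 0.1 mg/mL BSA, each enzyme (IKKε or TBK1 kinase system) was run according to the manufacturer's protocol. ADP formed was detected by ADP-Glo luminescence.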

[2] = target: T2, IKKε (Homo sapiens, UniProt Q14164); assay: ADP-Glo Kinase Assay, inhibition activity on IKKε; format: biochemical
T2 construct: purchased Promega and/or Invitrogen V4158; PR8031B; V3991 (not assigned to the two kinases)
T2 sequence (Q14164 1-716): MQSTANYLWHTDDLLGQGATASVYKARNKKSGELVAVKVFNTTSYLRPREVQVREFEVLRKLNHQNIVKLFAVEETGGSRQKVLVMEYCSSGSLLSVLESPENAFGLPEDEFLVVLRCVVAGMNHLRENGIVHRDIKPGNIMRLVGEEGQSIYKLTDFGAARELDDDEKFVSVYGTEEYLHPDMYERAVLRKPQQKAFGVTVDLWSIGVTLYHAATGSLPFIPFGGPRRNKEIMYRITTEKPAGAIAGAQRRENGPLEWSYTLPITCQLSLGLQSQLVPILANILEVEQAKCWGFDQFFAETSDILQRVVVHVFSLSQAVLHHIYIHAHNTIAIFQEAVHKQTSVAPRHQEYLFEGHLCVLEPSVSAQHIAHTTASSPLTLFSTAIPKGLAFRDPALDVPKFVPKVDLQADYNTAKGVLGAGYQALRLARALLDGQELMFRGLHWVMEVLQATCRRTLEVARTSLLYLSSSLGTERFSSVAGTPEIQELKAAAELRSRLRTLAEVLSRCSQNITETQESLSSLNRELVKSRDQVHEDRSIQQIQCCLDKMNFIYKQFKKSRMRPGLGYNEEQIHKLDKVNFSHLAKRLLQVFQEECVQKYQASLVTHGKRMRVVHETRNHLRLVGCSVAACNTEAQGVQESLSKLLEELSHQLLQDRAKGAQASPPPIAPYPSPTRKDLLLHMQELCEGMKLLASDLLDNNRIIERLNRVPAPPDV
Protocol: Inhibition activities on IKKϵ and TBK1 were evaluated using the compounds of Examples 1 to 250.
The inhibition activities on IKKϵ and TBK1 were measured by a luminometer, IKKϵ/TBK1 Kinase Enzyme System (Promega, Ca# V4158; Invitrogen, PR8031B, Promega, Ca# V3991) and ADP-Glo Kinase Assay using ADP-Glo™ Kinase Analysis Kit (Promega, Ca# V9101) and a kinase reaction buffer [40 mM Tris(pH 7.5), 20 mM MgCl2, 0.1 mg/mL BSA] in accordance with the manufacturer's protocol.

CC1C=C(c2c[nH]c3ncc(-c4ccc(CN5CCN(C)CC5)s4)cc23)CCN1C(=O)NC1CCCC1 (racemic) [Example 107, N-cyclopentyl-2-methyl-4-(5-(5-((4-methylpiperazin-1-yl)methyl)thiophen-2-yl)-1H-pyrrolo[2,3-b]pyridin-3-yl)-5,6-dihydropyridine-1(2H)-carboxamide]
IC50 [1]: 2.7 nM | IC50 [2]: 3.2 nM

CN1CC=C(c2c[nH]c3ncc(-c4ccc(CN5CCOCC5)s4)cc23)CC1 [Example 1, 4-((5-(3-(1-Methyl-1,2,3,6-tetrahydropyridin-4-yl)-1H-pyrrolo[2,3-b]pyridin-5-yl)thiophen-2-yl)methyl)morpholine]
IC50 [1]: 6860 nM | IC50 [2]: > 10000 nM

COc1ccc(-c2cnc3[nH]cc(C4=CCN(C)CC4)c3c2)cc1OC [Example 2, 5-(3,4-Dimethoxyphenyl)-3-(1-methyl-1,2,3,6-tetrahydropyridin-4-yl)-1H-pyrrolo[2,3-b]pyridine]
IC50 [1]: 9040 nM | IC50 [2]: > 10000 nM

CCN1CC=C(c2c[nH]c3ncc(-c4ccc(OC)c(OC)c4)cc23)CC1 [Example 3, 5-(3,4-Dimethoxyphenyl)-3-(1-ethyl-1,2,3,6-tetrahydropyridin-4-yl)-1H-pyrrolo[2,3-b]pyridine]
IC50 [1]: 5930 nM | IC50 [2]: > 10000 nM

CCCN1CC=C(c2c[nH]c3ncc(-c4ccc(OC)c(OC)c4)cc23)CC1 [Example 4, 5-(3,4-Dimethoxyphenyl)-3-(1-propyl-1,2,3,6-tetrahydropyridin-4-yl)-1H-pyrrolo[2,3-b]pyridine]
IC50 [1]: 3230 nM | IC50 [2]: 5140 nM

COc1ccc(-c2cnc3[nH]cc(C4=CCN(CC(C)C)CC4)c3c2)cc1OC [Example 5, 5-(3,4-Dimethoxyphenyl)-3-(1-isobutyl-1,2,3,6-tetrahydropyridin-4-yl)-1H-pyrrolo[2,3-b]pyridine]
IC50 [1]: 1560 nM | IC50 [2]: 2750 nM

CCN1CC=C(c2c[nH]c3ncc(-c4ccc(CN5CCOCC5)s4)cc23)CC1 [Example 6, 4-((5-(3-(1-Ethyl-1,2,3,6-tetrahydropyridin-4-yl)-1H-pyrrolo[2,3-b]pyridin-5-yl)thiophen-2-yl)methyl)morpholine]
IC50 [1]: 4080 nM | IC50 [2]: 8900 nM

CCCN1CC=C(c2c[nH]c3ncc(-c4ccc(CN5CCOCC5)s4)cc23)CC1 [Example 7, 4-((5-(3-(1-Propyl-1,2,3,6-tetrahydropyridin-4-yl)-1H-pyrrolo[2,3-b]pyridin-5-yl)thiophen-2-yl)methyl)morpholine]
IC50 [1]: 1910 nM | IC50 [2]: 4250 nM

CC(=O)N1CC=C(c2c[nH]c3ncc(-c4ccc(CN5CCOCC5)s4)cc23)CC1 [Example 8, 1-(4-(5-(5-(Morpholinomethyl)thiophen-2-yl)-1H-pyrrolo[2,3-b]pyridin-3-yl)-3,6-dihydropyridin-1(2H)-yl)ethan-1-one]
IC50 [1]: 140 nM | IC50 [2]: 660 nM

CCCCC(=O)N1CC=C(c2c[nH]c3ncc(-c4ccc(CN5CCOCC5)s4)cc23)CC1 [Example 9, 1-(4-(5-(5-(Morpholinomethyl)thiophen-2-yl)-1H-pyrrolo[2,3-b]pyridin-3-yl)-3,6-dihydropyridin-1(2H)-yl)pentan-1-one]
IC50 [1]: 330 nM | IC50 [2]: 510 nM

CC(C)CC(=O)N1CC=C(c2c[nH]c3ncc(-c4ccc(CN5CCOCC5)s4)cc23)CC1 [Example 10, 3-Methyl-1-(4-(5-(5-(morpholinomethyl)thiophen-2-yl)-1H-pyrrolo[2,3-b]pyridin-3-yl)-3,6-dihydropyridin-1(2H)-yl)butan-1-one]
IC50 [1]: 75 nM | IC50 [2]: 130 nM

CC(C)NC(=O)N1CC=C(c2c[nH]c3ncc(-c4ccccc4)cc23)CC1 [Example 11, N-isopropyl-4-(5-phenyl-1H-pyrrolo[2,3-b]pyridin-3-yl)-5,6-dihydropyridine-1(2H)-carboxamide]
IC50 [1]: 24 nM | IC50 [2]: 8200 nM

COc1ccc(-c2cnc3[nH]cc(C4=CCN(C(=O)NC(C)C)CC4)c3c2)cc1 [Example 12, N-isopropyl-4-(5-(4-methoxyphenyl)-1H-pyrrolo[2,3-b]pyridin-3-yl)-3,6-dihydropyridine-1(2H)-carboxamide]
IC50 [1]: 29 nM | IC50 [2]: 2200 nM

CC(C)NC(=O)N1CC=C(c2c[nH]c3ncc(-c4ccc(F)cc4)cc23)CC1 [Example 13, 4-(5-(4-Fluorophenyl)-1H-pyrrolo[2,3-b]pyridin-3-yl)-N-isopropyl-3,6-dihydropyridine-1(2H)-carboxamide]
IC50 [1]: 31 nM | IC50 [2]: 6800 nM

COc1cccc(-c2cnc3[nH]cc(C4=CCN(C(=O)NC(C)C)CC4)c3c2)c1 [Example 14, N-isopropyl-4-(5-(3-methoxyphenyl)-1H-pyrrolo[2,3-b]pyridin-3-yl)-3,6-dihydropyridine-1(2H)-carboxamide]
IC50 [1]: 15 nM | IC50 [2]: > 10000 nM

CC(C)NC(=O)N1CC=C(c2c[nH]c3ncc(-c4cccc(F)c4)cc23)CC1 [Example 15, 4-(5-(3-Fluorophenyl)-1H-pyrrolo[2,3-b]pyridin-3-yl)-N-isopropyl-3,6-dihydropyridine-1(2H)-carboxamide]
IC50 [1]: 11 nM | IC50 [2]: > 10000 nM

Cc1ccc(-c2cnc3[nH]cc(C4=CCN(C(=O)NC(C)C)CC4)c3c2)cc1 [Example 16, N-isopropyl-4-(5-(p-tolyl)-1H-pyrrolo[2,3-b]pyridin-3-yl)-3,6-dihydropyridine-1(2H)-carboxamide]
IC50 [1]: 36 nM | IC50 [2]: 280 nM

CC(=O)Nc1ccc(-c2cnc3[nH]cc(C4=CCN(C(=O)NC(C)C)CC4)c3c2)cc1 [Example 17, 4-(5-(4-Acetamidophenyl)-1H-pyrrolo[2,3-b]pyridin-3-yl)-N-isopropyl-3,6-dihydropyridine-1(2H)-carboxamide]
IC50 [1]: 7.8 nM | IC50 [2]: 21 nM

COc1ccc(-c2cnc3[nH]cc(C4=CCN(C(=O)NC(C)C)CC4)c3c2)cc1OC [Example 18, 4-(5-(3,4-Dimethoxyphenyl)-1H-pyrrolo[2,3-b]pyridin-3-yl)-N-isopropyl-5,6-dihydropyridine-1(2H)-carboxamide]
IC50 [1]: 2.5 nM | IC50 [2]: 45 nM

CC(=O)Nc1cccc(-c2cnc3[nH]cc(C4=CCN(C(=O)NC(C)C)CC4)c3c2)c1 [Example 19, 4-(5-(3-Acetamidophenyl)-1H-pyrrolo[2,3-b]pyridin-3-yl)-N-isopropyl-3,6-dihydropyridine-1(2H)-carboxamide]
IC50 [1]: 6.4 nM | IC50 [2]: 7 nM

CC(C)NC(=O)N1CC=C(c2c[nH]c3ncc(-c4ccc(CN5CCOCC5)cc4F)cc23)CC1 [Example 20, 4-(5-(2-Fluoro-4-(morpholinomethyl)phenyl)-1H-pyrrolo[2,3-b]pyridin-3-yl)-N-isopropyl-3,6-dihydropyridine-1(2H)-carboxamide]
IC50 [1]: 32 nM | IC50 [2]: 46 nM

CC(C)NC(=O)N1CC=C(c2c[nH]c3ncc(-c4ccc(CN5CCOCC5)o4)cc23)CC1 [Example 36, N-isopropyl-4-(5-(5-(morpholinomethyl)furan-2-yl)-1H-pyrrolo[2,3-b]pyridin-3-yl)-5,6-dihydropyridine-1(2H)-carboxamide]
IC50 [2]: 9.3 nM

O=C(Cc1ccc(-c2c[nH]c3ncc(-c4ccc(CN5CCOCC5)s4)cc23)cc1)NC1CCCC1 [Example 248, N-cyclopentyl-2-(4-(5-(5-(morpholinomethyl)thiophen-2-yl)-1H-pyrrolo[2,3-b]pyridin-3-yl)phenyl)acetamide 2,2,2-trifluoroacetate]
IC50 [1]: 2100 nM
